Experimental data: ChEMBL document CHEMBL1129877, “Design, synthesis and biological evaluation of 1,3-diaminopropanes: a new class of polyamine analogs as leishmanicidal agents” (1997)

Key:
Assay type in all cases: functional
[1] = tested on: Leishmania donovani; test: In vivo anti-leishmanial activity to Leishmania donovani infected hamster after intraperitoneal dose of 50 mg/kg X 5 on day 7th; conditions: ip
[2] = Tested in vivo for anti-leishmanial activity against Leishmania donovani infected hamster intraperitoneal dose of 100 mg/kg X 5 on day 7th; conditions: ip
[3] = Tested in vivo for anti-leishmanial activity against Leishmania donovani infected hamster auratus after oral dose of 50 mg/kg X 5 on day 7th
[4] = Tested in vivo for anti-leishmanial activity against Leishmania donovani infected hamster auratus after oral dose of 25 mg/kg X 5 on day 7th
[5] = Tested in vivo for anti-leishmanial activity against Leishmania donovani infected hamster intraperitoneal dose of 25 mg/kg X 5 on day 7th; conditions: ip

Structure (SMILES) | inhibition in vivo at 50 mg/kg [1] [%] | other results
NCCCN1CCN(c2ccccc2)CC1 | 37.2 | 
NCCCN1CCC(c2ccccc2)CC1 | 66 | 
N=C(N)NCCCN1CCCCC1 | 42.1 | 
CC1CCN(CCCN)CC1 | 54.5 | 
CCN1CCCN(CCCN2CCC(C)CC2)C1=O | 25 | 
COC(=O)/N=C(\NCCCN1CCN(c2ccccc2)CC1)NC(=O)OC | 73.8 | 
NCCCN1CCOCC1 | 45.8 | 
CN1CCN(CCCN)CC1 | 66.9 | 
COC(=O)/N=C(\NCCCN1CCC(c2ccccc2)CC1)NC(=O)OC | 66.5 | 
CN1CCN(CCCN2CCCNC2=O)CC1 | 52.1 | 
COC(=O)/N=C(\NCCCN1CCCCC1)NC(=O)OC | 56.2 | 
COC(=O)/N=C(\NCCCN1CCC(C)CC1)NC(=O)OC | 78.4 | inhibition in vivo at 100 mg/kg [2]: 46.4%; inhibition in vivo at 50 mg/kg [3]: 76.8%; inhibition in vivo at 25 mg/kg [4]: 77.6%; inhibition in vivo at 25 mg/kg [5]: 80.9%
N=C(N)NCCCN1CCC(c2ccccc2)CC1 | 57.7 | 
CN1CCN(CCCN=C(N)N)CC1 | 45.1 | 
N#CCCNCCCN1CCN(c2ccccc2)CC1 | 71 | inhibition in vivo at 25 mg/kg [5]: 71.2%
COC(=O)/N=C(\NCCCN1CCC(c2ccccn2)CC1)NC(=O)OC | 72.8 | inhibition in vivo at 25 mg/kg [5]: 73.2%
CC1CCN(CCCNCCC#N)CC1 | 45 | 
COC(=O)/N=C(\NCCCN1CCOCC1)NC(=O)OC | 80.2 | 
N#CCCNCCCN1CCC(c2ccccc2)CC1 | 43.4 | 
CN1CCN(CCCNCCC#N)CC1 | 78.1 | 
N#CCCNCCCN1CCCCC1 | 64.8 | 
NCCCN1CCCCC1 | 52.4 | 
CC1CCN(CCCN2CCCNC2=O)CC1 | 60.8 | 
NCCCN1CCC(c2ccccn2)CC1 | 48.7 | 
O=C1NCCCN1CCCN1CCCCC1 | 43 | 
CCN1CCCN(CCCN2CCCCC2)C1=O | 41.2 | 
COC(=O)/N=C(\NCCCN1CCN(C)CC1)NC(=O)OC | 85.5 | 
CC1CCN(CCCN=C(N)N)CC1 | 62.2 | 
